Among the data in US12208088B2 (Genentech, Inc., priority 2018, dated 2025) are Ki values, retold here.

Molecules are shown by their SMILES.

HPK1, sequence (Q92918 1-346 limits assumed): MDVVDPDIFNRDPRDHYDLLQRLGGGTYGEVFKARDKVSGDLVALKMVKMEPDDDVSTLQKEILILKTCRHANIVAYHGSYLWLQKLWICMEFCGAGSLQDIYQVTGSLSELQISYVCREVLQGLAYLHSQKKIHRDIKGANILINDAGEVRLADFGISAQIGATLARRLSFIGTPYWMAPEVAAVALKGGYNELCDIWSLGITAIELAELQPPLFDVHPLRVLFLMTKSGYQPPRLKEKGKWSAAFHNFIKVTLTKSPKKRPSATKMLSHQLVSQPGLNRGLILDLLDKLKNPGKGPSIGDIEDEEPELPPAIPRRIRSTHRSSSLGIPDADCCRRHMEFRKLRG

This assay concerns the target HPK1 (Homo sapiens (Human), UniProt Q92918). Kind of assay: HPK1 Lantha binding assay ("Lanth"). As to conditions: binding assays; Morrison Ki fit. In short, it runs like this:
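Ki values are from Morrison-equation fitting of 665/615 nm TR-FRET signals, taking enzyme level, tracer level and tracer Kd into account. The assay mix held HPK1 (2 nM), Eu-anti-GST antibody (2 nM) and Tracer222 (15 nM). Incubations were two 1 h steps at 23 °C, on 5-fold serial compound dilutions.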
As a reminder, the Ki is a dissociation constant, usually derived from enzyme kinetics or from competition with a known ligand. `OCc1cccc(-c2cnc3c(c2Cl)C2(CC=CC2)CN3)c1F` [Compound 219, (3-(4′-Chloro-1′,2′-dihydrospiro[cyclopentane-1,3′-pyrrolo[2,3-b]pyridin]-3-en-5′-yl)-2-fluorophenyl)methanol]: affinity was put at a Ki of 478 nM.
`Clc1c(-c2ccc(COC3CCOCC3)cc2)cnc2c1C1(CC=CC1)CN2` [Compound 220, 4′-Chloro-5′-(4-(((tetrahydro-2H-pyran-4-yl)oxy)methyl)phenyl)-1′,2′-dihydrospiro[cyclopentane-1,3′-pyrrolo[2,3-b]pyridin]-3-ene] returned a Ki of 308 nM.
`N#CCCNC(=O)c1ccc(-c2cnc3c(c2Cl)C2(CC=CC2)CN3)cc1` [Compound 221, 4-(4′-Chloro-1′,2′-dihydrospiro[cyclopentane-1,3′-pyrrolo[2,3-b]pyridin]-3-en-5′-yl)-N-(2-cyanoethyl)benzamide]: the Ki was 303 nM. This Ki and that of the compound before are within 1.5-fold of each other.
Next, `CC(=O)Nc1cccc(-c2cnc3c(c2Cl)C2(CC=CC2)CN3)c1` [Compound 222, N-(3-(4′-Chloro-1′,2′-dihydrospiro[cyclopentane-1,3′-pyrrolo[2,3-b]pyridin]-3-en-5′-yl)phenyl)acetamide]: 275 nM; `COCCc1ccc(-c2cnc3c(c2Cl)C2(CC=CC2)CN3)cc1` [Compound 223, 4′-Chloro-5′-(4-(2-methoxyethyl)phenyl)-1′,2′-dihydrospiro[cyclopentane-1,3′-pyrrolo[2,3-b]pyridin]-3-ene]: 436 nM.
`Nc1ccc(-c2cnc3c(c2Cl)C2(CC=CC2)CN3)cc1` [Compound 224, 4-(4′-Chloro-1′,2′-dihydrospiro[cyclopentane-1,3′-pyrrolo[2,3-b]pyridin]-3-en-5′-yl)aniline]: the Ki turned out to be 126 nM. Compared with the last compound, the Ki is about 3.5-fold lower.
On to `Nc1ccc(-c2cnc3c(c2Cl)C2(CC=CC2)CN3)c(F)c1` [Compound 225, 4-(4′-Chloro-1′,2′-dihydrospiro[cyclopentane-1,3′-pyrrolo[2,3-b]pyridin]-3-en-5′-yl)-3-fluoroaniline], for which affinity was put at a Ki of 363 nM.
To `CN(C)C(=O)c1cccc(-c2cnc3c(c2Cl)C2(CC=CC2)CN3)c1` [Compound 226, 3-(4′-Chloro-1′,2′-dihydrospiro[cyclopentane-1,3′-pyrrolo[2,3-b]pyridin]-3-en-5′-yl)-N,N-dimethylbenzamide] belongs 14 nM; to `CN(C)C(=O)c1cccc(-c2cnc3c(c2Cl)C2(CC=CC2)CN3)c1F` [Compound 227, 3-(4′-Chloro-1′,2′-dihydrospiro[cyclopentane-1,3′-pyrrolo[2,3-b]pyridin]-3-en-5′-yl)-2-fluoro-N,N-dimethylbenzamide], 11.2 nM.
To `O=C(c1ccc(-c2cnc3c(c2Cl)C2(CC=CC2)CN3)cc1Cl)N1CCC(O)CC1` [Compound 230, (2-Chloro-4-(4′-chloro-1′,2′-dihydrospiro[cyclopentane-1,3′-pyrrolo[2,3-b]pyridin]-3-en-5′-yl)phenyl)(4-hydroxypiperidin-1-yl)methanone] belongs 173 nM; to `O=C(c1ccc(-c2cnc3c(c2Cl)C2(CC=CC2)CN3)cc1)N1CCOCC1` [Compound 231, (4-(4′-Chloro-1′,2′-dihydrospiro[cyclopentane-1,3′-pyrrolo[2,3-b]pyridin]-3-en-5′-yl)phenyl)(morpholino)methanone], 447 nM.
In turn, `O=C(c1cccc(-c2cnc3c(c2)C2(CC2)CN3)c1F)N1CCCCC1` [Compound 232, (3-(1′,2′-dihydrospiro[cyclopropane-1,3′-pyrrolo[2,3-b]pyridin]-5′-y1)-2-fluorophenyl)(piperidin-1-yl)methanone] displayed a Ki of 33.7 nM.
In the case of `Cc1c(-c2ccc(N)c(C(=O)N(C)C)c2F)cnc2c1C1(CCCCC1)CN2` [Compound 233, 6-Amino-2-fluoro-N,N-dimethyl-3-(4′-methyl-1′,2′-dihydrospiro[cyclohexane-1,3′-pyrrolo[2,3-b]pyridin]-5′-yl)benzamide], the inhibitory constant (Ki) amounted to 26.1 nM.
For the compound `CC(C)[C@@H]1C[C@]12CNc1ncc(-c3ccc(N)c(C(=O)N(C)C)c3F)cc12` [Compound 234b, 6-Amino-2-fluoro-3-((1S,2S)-2-isopropyl-1′,2′-dihydrospiro[cyclopropane-1,3′-pyrrolo[2,3-b]pyridin]-5′-yl)-N,N-dimethylbenzamide], the affinity, expressed as Ki, was 38 nM.
To `CN(C)C(=O)c1c(N)ccc(-c2cnc3c(c2Cl)[C@]2(CC[C@@H](C(N)=O)CC2)CN3)c1F` [Compound 235a, (1r,4r)-5′-(4-Amino-3-(dimethylcarbamoyl)-2-fluorophenyl)-4′-chloro-1′,2′-dihydrospiro[cyclohexane-1,3′-pyrrolo[2,3-b]pyridine]-4-carboxamide] belongs 46.7 nM; to `CN(C)C(=O)c1c(N)ccc(-c2cnc3c(c2Cl)[C@]2(CC[C@H](C(N)=O)CC2)CN3)c1F` [Compound 235b, (1s,4s)-5′-(4-Amino-3-(dimethylcarbamoyl)-2-fluorophenyl)-4′-chloro-1′,2′-dihydrospiro[cyclohexane-1,3′-pyrrolo[2,3-b]pyridine]-4-carboxamide], 11.9 nM.
Turning to `NC(=O)C1(c2cccc(-c3cnc4c(c3Cl)C3(CC=CC3)CN4)c2)CC1` [Compound 236, 1-(3-(4′-Chloro-1′,2′-dihydrospiro[cyclopentane-1,3′-pyrrolo[2,3-b]pyridin]-3-en-5′-yl)phenyl)cyclopropane-1-carboxamide], affinity was put at a Ki of 33.2 nM.
`Clc1c(-c2ccc(Oc3ncccn3)cc2)cnc2c1C1(CC=CC1)CN2` [Compound 237, 4′-Chloro-5′-(4-(pyrimidin-2-yloxy)phenyl)-1′,2′-dihydrospiro[cyclopentane-1,3′-pyrrolo[2,3-b]pyridin]-3-ene] registered an inhibition constant Ki of 283 nM.
`Cc1cc(C)n(-c2cccc(-c3cnc4c(c3Cl)C3(CC=CC3)CN4)c2)n1` [Compound 238, 4′-Chloro-5′-(3-(3,5-dimethyl-1H-pyrazol-1-yl)phenyl)-1′,2′-dihydrospiro[cyclopentane-1,3′-pyrrolo[2,3-b]pyridin]-3-ene] displayed a Ki of 22.9 nM.
`CN(C)C(=O)c1c(N)ccc(-c2cnc3c(c2Cl)[C@]2(CC[C@@H](C#N)CC2)CN3)c1F` [Compound 241a, 6-Amino-3-((1r,4r)-4′-chloro-4-cyano-1′,2′-dihydrospiro[cyclohexane-1,3′-pyrrolo[2,3-b]pyridin]-5′-yl)-2-fluoro-N,N-dimethylbenzamide] showed a Ki of 44.8 nM.
`CN(C)C(=O)c1c(N)ccc(-c2cnc3c(c2Cl)[C@]2(CC[C@H](C#N)CC2)CN3)c1F` [Compound 241b, 6-Amino-3-((1s,4s)-4′-chloro-4-cyano-1′,2′-dihydrospiro[cyclohexane-1,3′-pyrrolo[2,3-b]pyridin]-5′-yl)-2-fluoro-N,N-dimethylbenzamide] displayed a Ki of 12.5 nM. This Ki is about 3.6-fold lower than that of the compound before.
For `Cc1c(CC#N)ccnc1-c1cccc(-c2cnc3c(c2)C2(CC2)CN3)c1` [Compound 242, 2-(2-(3-(1′,2′-Dihydrospiro[cyclopropane-1,3′-pyrrolo[2,3-b]pyridin]-5′-yl)phenyl)-3-methylpyridin-4-yl)acetonitrile], the Ki came out at 11.7 nM.
For `N#CC1CCCCN1C(=O)c1cccc(-c2cnc3c(c2)C2(CC2)CN3)c1F` (centres unmarked) [Compound 244, 1-(3-(1′,2′-Dihydrospiro[cyclopropane-1,3′-pyrrolo[2,3-b]pyridin]-5′-yl)-2-fluorobenzoyl)piperidine-2-carbonitrile], the affinity corresponds to a Ki of 8.25 nM.
